{
  "source": "patent US20230033021A1",
  "about": "“TREATMENT OF A DISEASE OF THE GASTROINTESTINAL TRACT WITH AN INTEGRIN INHIBITOR” (Progenity, Inc., priority 2018, published 2023)",
  "key": {"[1]": {"experiment": "Pharmacokinetic study of oral vs intra-cecal administration of tacrolimus: blood, rectal content, GI tissue and luminal content (Example 13)", "set-up": "species or system Yorkshire-Cross farm swine", "conditions": "female, Yorkshire-Cross, swine, in vivo, 0.09 mg/kg", "description": "No further randomization procedure was employed."}, "GM-CSF": {"system": "GM-CSF", "experiment": "GM-CSF in plasma and colon tissue by ELISA, DSS-induced colitis mouse model", "format": "in vivo, mice", "conditions": "between IC and PO treatment groups, plasma or colon tissue (data not shown)"}, "IL-6": {"system": "IL-6", "conditions": "low dose PO group (15 mg/kg), by 12 h post-dose"}},
  "data": [
    {"compound": "C=CC[C@@H]1/C=C(\\C)C[C@H](C)C[C@H](OC)[C@H]2O[C@@](O)(C(=O)C(=O)N3CCCC[C@H]3C(=O)O[C@H](/C(C)=C/[C@@H]3CC[C@@H](O)[C@H](OC)C3)[C@H](C)[C@@H](O)CC1=O)[C@H](C)C[C@@H]2OC", "note": "[tacrolimus]", "values": [
      {"measurement": "Tissue(mean) (ng/g)/Trough(12 hr)(ng/mL) Ratio", "setting": "[1]", "result": 0}
    ]},
    {"compound": "C[C@@H]1CCN(C(=O)CC#N)C[C@@H]1N(C)c1ncnc2[nH]ccc12", "note": "[tofacitinib]", "values": [
      {"measurement": "GM-CSF levels", "setting": "GM-CSF", "result": "nor was there a significant difference"}
    ]},
    {"compound": "C[C@@H]1CCN(C(=O)CC#N)C[C@@H]1N(C)c1ncnc2[nH]ccc12.O=C(O)CC(O)(CC(=O)O)C(=O)O", "note": "[tofacitinib citrate]", "values": [
      {"measurement": "IL-6 expression in colon tissue", "setting": "IL-6", "result": "Recovery from IL-6 inhibition"}
    ]}
  ]
}
